Carcinogen call and TD50 data for six molecules are collected here from PubChem BioAssay AID1745844 (Carcinogenic Potency Database (CPDB), 2022).

Structures are written as SMILES. Active and inactive are the calls of the source. How the calls were made is not given here.

For the series, the system named is rodent lifetime carcinogenesis bioassay, tumor incidence TD50. The series is described as follows: carcinogenic potency in animals, long-term in vivo studies, CPDB compilation (AID 1745844).

Take `C[C@@H]1O[C@@]2(CS1)CN1CCC2CC1`: the carcinogen call reads like this: (rat, strain F344/DuCrj, females, by gavage, site: liver, lesion: one or several types, types not named, dosed 52 weeks, study length 52 weeks) “negative (inactive)”; (rat, strain F344/DuCrj, males, by gavage, site: liver, lesion: one or several types, types not named, dosed 52 weeks, study length 52 weeks) “negative (inactive)”.

As for `Cc1cccc(OCC(O)CNC(C)(C)C)c1C` (stereo not given), the carcinogen call reads like this: (mouse, strain B6C3F1, females, in feed, site: any site (literature study), lesion: several types, types named in the paper, dosed 82 weeks, study length 92 weeks) “negative (inactive)”; (mouse, strain B6C3F1, females, in feed, site: liver, lesion: several types, types named in the paper, dosed 82 weeks, study length 92 weeks) “negative (inactive)”; (mouse, strain B6C3F1, females, in feed, site: lung, lesion: several types, types named in the paper, dosed 82 weeks, study length 92 weeks) “negative (inactive)”; (mouse, strain B6C3F1, males, in feed, site: liver, lesion: several types, types named in the paper, dosed 82 weeks, study length 92 weeks) “negative (inactive)”. The TD50 (mouse, strain B6C3F1, males, in feed, site: any site (literature study), lesion: several types, types named in the paper, dosed 82 weeks, study length 92 weeks) was 618 mg/kg/day (inactive) and the TD50 (mouse, strain B6C3F1, males, in feed, site: lung, lesion: several types, types named in the paper, dosed 82 weeks, study length 92 weeks) was 1730 mg/kg/day (inactive).

Regarding `ClC(Br)Br`, the TD50 is, setting by setting: (mouse, strain B6C3F1, females, by gavage, site: liver, lesion: hepatocellular adenoma + hepatocellular carcinoma + neoplastic nodule, dosed 105 weeks, study length 106 weeks) 139 mg/kg/day; (mouse, strain B6C3F1, females, by gavage, site: liver, lesion: hepatocellular adenoma + hepatocellular carcinoma, dosed 105 weeks, study length 106 weeks) 139 mg/kg/day; (mouse, strain B6C3F1, females, by gavage, site: liver, lesion: hepatocellular adenoma, dosed 105 weeks, study length 106 weeks) 211 mg/kg/day; (mouse, strain B6C3F1, males, by gavage, site: any site (literature study), lesion: several types, types named in the paper, dosed 105 weeks, study length 106 weeks) 11.3 mg/kg/day; (mouse, strain B6C3F1, males, by gavage, site: liver, lesion: hepatocellular adenoma + hepatocellular carcinoma + neoplastic nodule, dosed 105 weeks, study length 106 weeks) 20.7 mg/kg/day; (mouse, strain B6C3F1, males, by gavage, site: liver, lesion: hepatocellular adenoma + hepatocellular carcinoma, dosed 105 weeks, study length 106 weeks) 20.7 mg/kg/day. Further, the TD50 (mouse, strain B6C3F1, males, by gavage, site: liver, lesion: hepatocellular carcinoma, dosed 105 weeks, study length 106 weeks) turned out to be 33.5 mg/kg/day; the TD50 (mouse, strain B6C3F1, males, by gavage, site: lung, lesion: alveolar/bronchiolar adenoma + alveolar/bronchiolar carcinoma, dosed 105 weeks, study length 106 weeks) worked out at 115 mg/kg/day; the TD50 (rat, strain Fischer 344, females, by gavage, site: liver, lesion: hepatocellular adenoma + hepatocellular carcinoma + neoplastic nodule, dosed 104 weeks, study length 105 weeks) was 591 mg/kg/day; the TD50 (rat, strain Fischer 344, males, by gavage, site: liver, lesion: hepatocellular adenoma + hepatocellular carcinoma + neoplastic nodule, dosed 104 weeks, study length 105 weeks) worked out at 150 mg/kg/day. Further, the carcinogen call (rat, strain Fischer 344, females, by gavage, site: any site (literature study), lesion: several types, types named in the paper, dosed 104 weeks, study length 105 weeks) is “negative (inactive)” and the carcinogen call (rat, strain Fischer 344, males, by gavage, site: any site (literature study), lesion: several types, types named in the paper, dosed 104 weeks, study length 105 weeks) was “negative (inactive)”.

With `CC(=O)c1ccc(S(=O)(=O)NC(=O)NC2CCCCC2)cc1`, the carcinogen call by setting is: (mouse, strain B6C3F1, females, in feed, site: any site (literature study), lesion: several types, types named in the paper, dosed 103 weeks, study length 107 weeks) “negative (inactive)”; (rat, strain Fischer 344, females, in feed, site: any site (literature study), lesion: several types, types named in the paper, dosed 103 weeks, study length 106 weeks) “negative (inactive)”. Also, the TD50 (mouse, strain B6C3F1, males, in feed, site: any site (literature study), lesion: several types, types named in the paper, dosed 103 weeks, study length 107 weeks) was 2370 mg/kg/day (inactive); the TD50 (rat, strain Fischer 344, males, in feed, site: all sites, lesion: leukemia, dosed 103 weeks, study length 105 weeks) is 527 mg/kg/day (inactive); the TD50 (rat, strain Fischer 344, males, in feed, site: any site (literature study), lesion: several types, types named in the paper, dosed 103 weeks, study length 105 weeks) is 2120 mg/kg/day; the TD50 (rat, strain Fischer 344, males, in feed, site: liver, lesion: hepatocellular adenoma + hepatocellular carcinoma + neoplastic nodule, dosed 103 weeks, study length 105 weeks) is 16600 mg/kg/day.

In the case of `CC1CO1` (stereo not given), the TD50 runs as follows: (mouse, strain B6C3F1, females, inhaled, site: all sites, lesion: hemangioma + hemangiosarcoma, dosed 103 weeks, study length 104 weeks) 863 mg/kg/day; (mouse, strain B6C3F1, females, inhaled, site: all sites, lesion: hemangioma, dosed 103 weeks, study length 104 weeks) 1810 mg/kg/day; (mouse, strain B6C3F1, females, inhaled, site: all sites, lesion: hemangiosarcoma, dosed 103 weeks, study length 104 weeks) 1610 mg/kg/day; (mouse, strain B6C3F1, females, inhaled, site: any site (literature study), lesion: several types, types named in the paper, dosed 103 weeks, study length 104 weeks) 226 mg/kg/day; (mouse, strain B6C3F1, females, inhaled, site: liver, lesion: hepatocellular adenoma + hepatocellular carcinoma + neoplastic nodule, dosed 103 weeks, study length 104 weeks) 979 mg/kg/day; (mouse, strain B6C3F1, females, inhaled, site: lung, lesion: alveolar/bronchiolar adenoma + alveolar/bronchiolar carcinoma, dosed 103 weeks, study length 104 weeks) 588 mg/kg/day. Further, the TD50 by setting is: (mouse, strain B6C3F1, females, inhaled, site: lung, lesion: alveolar/bronchiolar adenoma, dosed 103 weeks, study length 104 weeks) 588 mg/kg/day; (mouse, strain B6C3F1, females, inhaled, site: mammary gland, lesion: adenocarcinoma + adenosquamous carcinoma, dosed 103 weeks, study length 104 weeks) 1260 mg/kg/day; (mouse, strain B6C3F1, females, inhaled, site: mammary gland, lesion: adenosquamous carcinoma, dosed 103 weeks, study length 104 weeks) 2770 mg/kg/day; (mouse, strain B6C3F1, females, inhaled, site: nasal cavity, lesion: hemangioma + hemangiosarcoma, dosed 103 weeks, study length 104 weeks) 1210 mg/kg/day; (mouse, strain B6C3F1, females, inhaled, site: nasal cavity, lesion: hemangioma, dosed 103 weeks, study length 104 weeks) 2020 mg/kg/day; (mouse, strain B6C3F1, males, inhaled, site: all sites, lesion: hemangioma + hemangiosarcoma, dosed 103 weeks, study length 104 weeks) 753 mg/kg/day. The TD50 was 722 mg/kg/day (mouse, strain B6C3F1, males, inhaled, site: any site (literature study), lesion: several types, types named in the paper, dosed 103 weeks, study length 104 weeks); 732 mg/kg/day (mouse, strain B6C3F1, males, inhaled, site: nasal cavity, lesion: hemangioma + hemangiosarcoma, dosed 103 weeks, study length 104 weeks); 1470 mg/kg/day (mouse, strain B6C3F1, males, inhaled, site: nasal cavity, lesion: hemangioma, dosed 103 weeks, study length 104 weeks); 1610 mg/kg/day (mouse, strain B6C3F1, males, inhaled, site: nasal cavity, lesion: hemangiosarcoma, dosed 103 weeks, study length 104 weeks); 124 mg/kg/day (rat, strain Fischer 344, females, inhaled, site: any site (literature study), lesion: several types, types named in the paper, dosed 103 weeks, study length 104 weeks); 156 mg/kg/day (rat, strain Fischer 344, females, inhaled, site: cervix uteri + uterus, lesion: endometrial stromal polyp + endometrial stromal sarcoma, dosed 103 weeks, study length 104 weeks). For the same molecule, the TD50 (rat, strain Fischer 344, females, inhaled, site: nasal cavity, lesion: papillary adenoma, dosed 103 weeks, study length 104 weeks) was 732 mg/kg/day; the TD50 (rat, strain Fischer 344, males, inhaled, site: adrenal gland, lesion: pheochromocytoma, dosed 101 weeks, study length 104 weeks) was 35.1 mg/kg/day; the TD50 (rat, strain Fischer 344, males, inhaled, site: any site (literature study), lesion: several types, types named in the paper, dosed 103 weeks, study length 104 weeks) was determined as 220 mg/kg/day; the TD50 (rat, strain Fischer 344, males, inhaled, site: liver, lesion: hepatocellular adenoma + hepatocellular carcinoma + neoplastic nodule, dosed 103 weeks, study length 104 weeks) amounted to 528 mg/kg/day; the TD50 (rat, strain Fischer 344, males, inhaled, site: liver, lesion: hepatocellular carcinoma, dosed 101 weeks, study length 104 weeks) amounted to 2960 mg/kg/day; the TD50 (rat, strain Fischer 344, males, inhaled, site: nasal cavity, lesion: papillary adenoma, dosed 103 weeks, study length 104 weeks) is 826 mg/kg/day. The TD50 was 44.3 mg/kg/day (rat, strain Sprague-Dawley, females, by gavage, site: forestomach, lesion: squamous-cell carcinoma, dosed 109 weeks, study length 150 weeks); 39.5 mg/kg/day (rat, strain Sprague-Dawley, females, by gavage, site: stomach, lesion: several types, types named in the paper, dosed 109 weeks, study length 150 weeks); 150 mg/kg/day (rat, strain Wistar-random, females, inhaled, site: any site (literature study), lesion: malignant tumor, dosed 123 weeks, study length 123 weeks); 25.7 mg/kg/day (rat, strain Wistar-random, females, inhaled, site: any site (literature study), lesion: one or several types, types not named, dosed 123 weeks, study length 123 weeks); 2460 mg/kg/day (rat, strain Wistar-random, females, inhaled, site: liver, lesion: cholangioma, dosed 123 weeks, study length 123 weeks); 813 mg/kg/day (rat, strain Wistar-random, females, inhaled, site: mammary gland, lesion: adenocarcinoma, dosed 123 weeks, study length 123 weeks). In addition, the TD50 is 92.6 mg/kg/day (rat, strain Wistar-random, females, inhaled, site: mammary gland, lesion: fibroadenoma, dosed 123 weeks, study length 123 weeks); 101 mg/kg/day (rat, strain Wistar-random, males, inhaled, site: any site (literature study), lesion: malignant tumor, dosed 124 weeks, study length 124 weeks); 79.3 mg/kg/day (rat, strain Wistar-random, males, inhaled, site: any site (literature study), lesion: one or several types, types not named, dosed 124 weeks, study length 124 weeks); 896 mg/kg/day (rat, strain Wistar-random, males, inhaled, site: respiratory system, lesion: carcinoma, dosed 124 weeks, study length 124 weeks).

As to `CC(=O)NCc1nc(-c2ccc([N+](=O)[O-])o2)no1`, the TD50 is, setting by setting: (rat, strain Sprague-Dawley, females, in feed, site: any site (literature study), lesion: several types, types named in the paper, dosed 46 weeks, study length 66 weeks) 5.2 mg/kg/day; (rat, strain Sprague-Dawley, females, in feed, site: kidney/pelvis, lesion: transitional-cell carcinoma, dosed 46 weeks, study length 66 weeks) 59.6 mg/kg/day; (rat, strain Sprague-Dawley, females, in feed, site: lung, lesion: alveolar-cell carcinoma, dosed 46 weeks, study length 66 weeks) 59.6 mg/kg/day; (rat, strain Sprague-Dawley, females, in feed, site: mammary gland, lesion: adenocarcinoma, dosed 46 weeks, study length 66 weeks) 10.3 mg/kg/day; (rat, strain Sprague-Dawley, females, in feed, site: mammary gland, lesion: several types, types named in the paper, dosed 46 weeks, study length 66 weeks) 6.35 mg/kg/day.
